One test relates to BT-474. Briefly: Antiproliferative activity against human BT474 cells overexpressing ERBb2 after 3 days by methylene blue staining. It is filed as functional, cell-based. The conditions noted are these: BT-474, 72 h.
Test [1] addresses T1, Receptor tyrosine-protein kinase erbB-2 (Homo sapiens, UniProt P04626). Briefly: Inhibition of ERBb2 by scintillation proximity assay. Background: Scintillation proximity formats need no separation of bound from free tracer.
Another test relates to HN5. In words: Antiproliferative activity against human HN5 cells overexpressing EGFR after 3 days by methylene blue staining. The conditions noted are these: HN5, 72 h.
Test [2] addresses T2, Epidermal growth factor receptor (Homo sapiens, UniProt P00533). Briefly: Inhibition of EGFR by scintillation proximity assay.
Another test concerns HFF. Briefly: Antiproliferative activity against human HFF cells after 3 days by methylene blue staining. To be noted: 72 h.
The target in test [3] is T1, Receptor tyrosine-protein kinase erbB-2. Briefly: Inhibition of ERBb2 by HTRF assay. For orientation: Time-resolved FRET reads energy transfer from a long-lived donor to a nearby acceptor.
The target in test [4] is T2, Epidermal growth factor receptor. Briefly: Inhibition of EGFR by HTRF assay.

Results on 21 molecules are retold here after ChEMBL document CHEMBL1139297, “Synthesis and stereochemical effects of pyrrolidinyl-acetylenic thieno[3,2-d]pyrimidines as EGFR and ErbB-2 inhibitors” (Bioorg Med Chem Lett, 2009).

T1 sequence (P04626 whole entry): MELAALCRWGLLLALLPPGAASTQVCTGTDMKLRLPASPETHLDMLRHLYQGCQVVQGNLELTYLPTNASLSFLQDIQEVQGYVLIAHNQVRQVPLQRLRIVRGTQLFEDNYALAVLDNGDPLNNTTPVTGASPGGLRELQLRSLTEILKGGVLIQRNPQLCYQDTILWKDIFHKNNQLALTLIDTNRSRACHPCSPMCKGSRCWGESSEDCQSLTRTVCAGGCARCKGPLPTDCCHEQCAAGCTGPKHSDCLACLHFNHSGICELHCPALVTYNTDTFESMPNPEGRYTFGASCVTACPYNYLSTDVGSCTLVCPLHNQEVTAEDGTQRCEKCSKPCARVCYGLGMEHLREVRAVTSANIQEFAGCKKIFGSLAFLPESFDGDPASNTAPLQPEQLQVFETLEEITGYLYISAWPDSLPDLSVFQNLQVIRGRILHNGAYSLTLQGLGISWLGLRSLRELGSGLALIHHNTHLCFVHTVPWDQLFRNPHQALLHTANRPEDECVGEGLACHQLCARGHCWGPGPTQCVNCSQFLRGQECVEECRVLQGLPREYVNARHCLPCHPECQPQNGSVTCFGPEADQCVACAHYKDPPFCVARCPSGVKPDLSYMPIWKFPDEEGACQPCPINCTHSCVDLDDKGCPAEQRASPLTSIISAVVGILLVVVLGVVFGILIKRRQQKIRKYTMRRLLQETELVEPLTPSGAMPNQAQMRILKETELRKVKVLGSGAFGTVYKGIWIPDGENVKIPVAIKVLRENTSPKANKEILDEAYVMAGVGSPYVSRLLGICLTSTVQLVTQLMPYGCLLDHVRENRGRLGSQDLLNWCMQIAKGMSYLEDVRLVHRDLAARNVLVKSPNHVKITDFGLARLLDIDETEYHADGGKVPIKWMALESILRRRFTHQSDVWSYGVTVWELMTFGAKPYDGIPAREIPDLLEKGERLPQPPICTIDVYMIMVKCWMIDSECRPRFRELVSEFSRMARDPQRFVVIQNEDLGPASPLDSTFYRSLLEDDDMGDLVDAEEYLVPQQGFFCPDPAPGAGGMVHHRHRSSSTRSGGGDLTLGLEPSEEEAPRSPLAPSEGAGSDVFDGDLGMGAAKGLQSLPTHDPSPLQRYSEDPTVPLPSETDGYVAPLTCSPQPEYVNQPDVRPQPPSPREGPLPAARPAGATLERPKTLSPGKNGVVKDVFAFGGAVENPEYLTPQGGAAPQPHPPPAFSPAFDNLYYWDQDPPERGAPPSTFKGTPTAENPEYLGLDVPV
T2 sequence (P00533 whole entry): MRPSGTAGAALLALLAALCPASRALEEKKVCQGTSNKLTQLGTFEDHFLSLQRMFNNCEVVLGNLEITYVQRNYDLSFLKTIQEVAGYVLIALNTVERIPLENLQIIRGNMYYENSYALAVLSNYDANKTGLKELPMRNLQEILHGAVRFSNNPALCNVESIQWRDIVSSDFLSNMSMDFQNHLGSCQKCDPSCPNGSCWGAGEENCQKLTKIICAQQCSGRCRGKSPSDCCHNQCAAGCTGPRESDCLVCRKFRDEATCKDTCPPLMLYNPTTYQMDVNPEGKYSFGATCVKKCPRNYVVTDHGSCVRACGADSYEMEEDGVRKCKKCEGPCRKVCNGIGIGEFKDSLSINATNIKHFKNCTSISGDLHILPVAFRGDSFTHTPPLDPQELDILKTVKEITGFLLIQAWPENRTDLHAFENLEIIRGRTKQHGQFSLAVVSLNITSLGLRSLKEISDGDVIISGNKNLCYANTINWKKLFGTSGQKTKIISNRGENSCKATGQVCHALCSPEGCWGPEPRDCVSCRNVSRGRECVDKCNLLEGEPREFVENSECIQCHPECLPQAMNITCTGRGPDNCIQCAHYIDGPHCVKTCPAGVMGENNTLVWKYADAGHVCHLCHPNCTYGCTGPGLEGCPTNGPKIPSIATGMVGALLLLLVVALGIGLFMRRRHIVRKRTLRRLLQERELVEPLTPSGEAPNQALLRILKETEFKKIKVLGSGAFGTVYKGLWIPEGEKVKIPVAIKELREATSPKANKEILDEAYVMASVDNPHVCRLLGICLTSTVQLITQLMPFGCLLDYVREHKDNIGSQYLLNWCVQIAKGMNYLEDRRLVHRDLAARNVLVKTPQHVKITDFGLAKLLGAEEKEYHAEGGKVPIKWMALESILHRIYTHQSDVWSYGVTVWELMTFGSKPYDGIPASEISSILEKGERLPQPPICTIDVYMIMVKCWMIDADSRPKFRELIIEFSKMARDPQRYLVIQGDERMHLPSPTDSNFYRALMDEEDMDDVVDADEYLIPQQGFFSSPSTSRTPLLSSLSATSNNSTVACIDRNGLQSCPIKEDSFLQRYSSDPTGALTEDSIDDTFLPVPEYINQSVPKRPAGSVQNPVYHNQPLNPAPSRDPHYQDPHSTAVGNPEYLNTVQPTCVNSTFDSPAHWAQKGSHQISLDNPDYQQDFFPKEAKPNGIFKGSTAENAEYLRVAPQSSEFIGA

Consider `O=C(O[C@@H]1CN[C@H](C#Cc2cc3ncnc(Nc4ccc(OCc5cccc(F)c5)c(Cl)c4)c3s2)C1)N1CCOCC1`, for which, in the test on BT-474, the EC50 (commonly the concentration that produces a half-maximal response) is 0.14 µM.

On to `O=C(O[C@@H]1CN[C@@H](C#Cc2cc3ncnc(Nc4ccc(OCc5cccc(F)c5)c(Cl)c4)c3s2)C1)N1CCOCC1`, for which, in the test with BT-474, the EC50 amounted to 0.05 µM. This EC50 lies about 2.8-fold lower than the previous one.

In the test with BT-474, `O=C(O[C@H]1CN[C@@H](C#Cc2cc3ncnc(Nc4ccc(OCc5cccc(F)c5)c(Cl)c4)c3s2)C1)N1CCOCC1` yielded a half-maximal effective concentration (EC50) of 0.12 µM.

Regarding `O=C(O[C@H]1CN[C@H](C#Cc2cc3ncnc(Nc4ccc(OCc5cccc(F)c5)c(Cl)c4)c3s2)C1)N1CCCC1`, the half-inhibitory concentration (IC50) (commonly the midpoint of a concentration-inhibition curve) in test [1] came out at 0.032 µM; in test [2], 0.099 µM. The EC50 with HN5 turned out to be 0.12 µM; in the test on BT-474 it was 0.06 µM; in the test with HFF it was 3.5 µM.

Consider `NC(=O)O[C@H]1CN[C@H](C#Cc2cc3ncnc(Nc4ccc(OCc5cccc(F)c5)c(Cl)c4)c3s2)C1`, for which the results for the IC50 in test [3] and in test [4] were 0.016 µM and 0.04 µM, respectively. In addition, the values for the EC50 in the test with HN5, in the test on BT-474 and in the test on HFF were 0.1 µM, 0.025 µM and 5.5 µM, respectively.

`CCNC(=O)O[C@@H]1CN[C@@H](C#Cc2cc3ncnc(Nc4ccc(OCc5cccc(F)c5)c(Cl)c4)c3s2)C1` had an EC50 in the test with BT-474 of 0.06 µM. In test [4], this molecule had an IC50 of 0.05 µM.

As for `CCNC(=O)O[C@H]1CN[C@@H](C#Cc2cc3ncnc(Nc4ccc(OCc5cccc(F)c5)c(Cl)c4)c3s2)C1`, the midpoint of the response with BT-474, the EC50, lay at 0.02 µM. Besides, the half-maximal inhibitory concentration (IC50) in test [4] turned out to be 0.032 µM.

Take `CN(C)C(=O)O[C@H]1CN[C@@H](C#Cc2cc3ncnc(Nc4ccc(OCc5cccc(F)c5)c(Cl)c4)c3s2)C1`: in the test on BT-474, the EC50 was determined as 0.01 µM. This lies in the double-digit nanomolar range.

Take `CNC(=O)O[C@H]1CN[C@H](C#Cc2cc3ncnc(Nc4ccc(OCc5cccc(F)c5)c(Cl)c4)c3s2)C1`: the half-maximal effective concentration (EC50) in the test on HN5 is 0.06 µM; with BT-474, 0.03 µM; with HFF it was 5 µM.

With `CCNC(=O)O[C@@H]1CN[C@H](C#Cc2cc3ncnc(Nc4ccc(OCc5cccc(F)c5)c(Cl)c4)c3s2)C1`, the EC50 with BT-474 came to 0.13 µM. This lies in the sub-micromolar range.

Consider `CN(C)C(=O)O[C@@H]1CN[C@H](C#Cc2cc3ncnc(Nc4ccc(OCc5cccc(F)c5)c(Cl)c4)c3s2)C1`, for which, in the test on BT-474, the EC50 amounted to 0.23 µM.

On to `O=C(O[C@H]1CN[C@H](C#Cc2cc3ncnc(Nc4ccc(OCc5cccc(F)c5)c(Cl)c4)c3s2)C1)N1CCNCC1`, for which the figures for the 50% inhibitory concentration (IC50) in test [3] and in test [4] were 0.02 µM and 0.063 µM, respectively. Besides, the results for the concentration giving a half-maximal response (EC50) with HN5, with BT-474 and in the test on HFF were 0.4 µM, 0.1 µM and 5.1 µM, respectively.

For the molecule `CS(=O)(=O)CCNC(=O)O[C@H]1CN[C@H](C#Cc2cc3ncnc(Nc4ccc(OCc5cccc(F)c5)c(Cl)c4)c3s2)C1`, the results for the half-maximal inhibitory concentration (IC50) in test [3] and in test [4] were 0.032 µM and 0.04 µM, respectively. The EC50 was 0.03 µM with HN5, 0.29 µM in the test on BT-474 and 8.2 µM with HFF.

For the molecule `CCN(CC)C(=O)O[C@H]1CN[C@H](C#Cc2cc3ncnc(Nc4ccc(OCc5cccc(F)c5)c(Cl)c4)c3s2)C1`, the IC50 in test [1] was 0.05 µM; in test [2], 0.063 µM. Moreover, the EC50 came to 0.25 µM with HN5, 0.08 µM with BT-474 and 4.3 µM in the test with HFF.

As for `CCN(C)C(=O)O[C@H]1CN[C@H](C#Cc2cc3ncnc(Nc4ccc(OCc5cccc(F)c5)c(Cl)c4)c3s2)C1`, the IC50 in test [3] is 0.032 µM; in test [4], 0.05 µM. Also, the EC50 in the test with HN5 turned out to be 0.24 µM; in the test with BT-474, 0.09 µM; in the test on HFF, 3 µM.

As for `C=CC(=O)Nc1cc2c(Nc3ccc(F)c(Cl)c3)ncnc2cc1OCCCN1CCOCC1` [CANERTINIB], the 50% effective concentration (EC50) in the test on HN5 was found to be 0.05 µM; in the test with BT-474, 0.01 µM.

As to `CN(C)C(=O)O[C@H]1CN[C@H](C#Cc2cc3ncnc(Nc4ccc(OCc5cccc(F)c5)c(Cl)c4)c3s2)C1` [GSK-182497A], the concentration giving a half-maximal response (EC50) was determined as 0.03 µM with BT-474 and 2.8 µM in the test on HFF.

As for `CCNC(=O)O[C@H]1CN[C@H](C#Cc2cc3ncnc(Nc4ccc(OCc5cccc(F)c5)c(Cl)c4)c3s2)C1` [GSK-192082A], the concentration for a half-maximal effect (EC50) in the test on HN5 amounted to 0.095 µM; in the test on BT-474, 0.03 µM; in the test with HFF, 4.2 µM.

As for `CN(C)C(=O)O[C@@H]1CN[C@@H](C#Cc2cc3ncnc(Nc4ccc(OCc5cccc(F)c5)c(Cl)c4)c3s2)C1` [GSK-238063A], the EC50 in the test with BT-474 is 0.03 µM. This counts as double-digit nanomolar.

As for `O=C(O[C@H]1CN[C@H](C#Cc2cc3ncnc(Nc4ccc(OCc5cccc(F)c5)c(Cl)c4)c3s2)C1)N1CCOCC1` [GW869810X], the concentration giving a half-maximal response (EC50) amounted to 0.03 µM in the test with BT-474 and 4.9 µM in the test on HFF.

In the test on BT-474, `CS(=O)(=O)CCNCc1ccc(-c2ccc3ncnc(Nc4ccc(OCc5cccc(F)c5)c(Cl)c4)c3c2)o1` [LAPATINIB DITOSYLATE] showed a concentration giving a half-maximal response (EC50) of 0.02 µM.
